Measurements reported in US8722733B2 (XenoPort, Inc., priority 2008, dated 2014).

What was measured:
[1] = Interconversion of the anhydrous and hydrated crystalline forms (XRPD); type: physicochemical
Description: X-ray powder diffraction (XRPD) analysis was performed using a PANalytical X'Pert Pro X-ray diffractometer. The X-ray source was Cu-kα1 with output voltage of 45 kV and current of 40 mA. The instrument employed para-focusing Bragg-Brentano geometry with incident divergence and scattering slits set at 1/16° and ⅛°, respectively. 0.04-mm radius soller slits were used for both the incident and diffracted beams to remove axial divergence. Powder samples (9-12 mg) were gently pressed onto a single crystal silicon sample holder to form a smooth surface, and samples were spun at 8 sec/revolution throughout the data acquisition process. The samples were scanned from 2° to 40° (2θ) with a step size of 0.017° (2θ°) and a scan speed of 0.067°/sec. Data acquisition was controlled and analyzed with X'Pert Data Collector Software (version 2.2d) and X'Pert Data Viewer (version 1.2c), respectively.
The anhydrous and hydrated crystalline forms of (2R)-2-phenylcarbonyloxypropyl (2S)-2-amino-3-(3,4-dihydroxyphenyl)propanoate mesylate interconvert depending on the water content of the environment.

[2] = Water sorption/desorption (dynamic vapor sorption); type: physicochemical; details: 25° C., humidity cycle 5% RH to 95% RH at 10% RH intervals
Description: The hygroscopicity of (2R)-2-phenylcarbonyloxypropyl (2S)-2-amino-3-(3,4-dihydroxyphenyl)propanoate mesylate, hydrate was evaluated during one vapor sorption-desorption cycle using a VTI SGA-100 dynamic vapor sorption analyzer. (2R)-2-Phenylcarbonyloxypropyl (2S)-2-amino-3-(3,4-dihydroxyphenyl)propanoate mesylate, hydrate was first dried at 25° C. for 180 min under a nitrogen atmosphere. The material was considered equilibrated when the weight change during 2 min was less than 0.01%. To evaluate the vapor sorption-desorption at 25° C., the dried (2R)-2-phenylcarbonyloxypropyl (2S)-2-amino-3-(3,4-dihydroxyphenyl)propanoate mesylate, hydrate was exposed to a humidity cycle ramped (and deramped) from 5% RH to 95% RH at 10% RH intervals. At each humidity interval, the material was equilibrated as determined by a less than 0.01% weight change during 5 min.

Structure (SMILES) | Crystal form after heating and then room temperature and humidity ([1]; after heating at 70° C., left at room temperature and humidity for 1 day) | Crystal form after heating ([1]; heated from 25° C. to 70° C. at 2° C./min, held at 70° C. for 15 min) | Crystal form after vacuum drying and then room temperature and humidity ([1]; vacuum dried overnight, then 25° C. and 40-60% RH for one day) | Hygroscopicity: vapor sorption-desorption [2] | Time for conversion to the hydrate in the presence of water vapor ([1]; about 25° C., humidity of at least about 60% RH) [h]
CS(=O)(=O)O.C[C@H](COC(=O)[C@@H](N)Cc1ccc(O)c(O)c1)OC(=O)c1ccccc1.O [(2R)-2-phenylcarbonyloxypropyl (2S)-2-amino-3-(3,4-dihydroxyphenyl)propanoate mesylate, hydrate] | reverts to crystalline (2R)-2-phenylcarbonyloxypropyl (2S)-2-amino-3-(3,4-dihydroxyphenyl)propanoate mesylate, hydrate | converted to a transient/metastable crystalline form | a mixture of crystalline anhydrous and hydrate forms | humidity-dependent reversible sorption and desorption of water vapor | –
CS(=O)(=O)O.C[C@H](COC(=O)[C@@H](N)Cc1ccc(O)c(O)c1)OC(=O)c1ccccc1 [compound 1, (2R)-2-phenylcarbonyloxypropyl (2S)-2-amino-3-(3,4-dihydroxyphenyl)propanoate mesylate] | – | – | – | – | ≤ 24
